Source: patent US20230085307A1, “PYRIDAZINONE COMPOUND AND HERBICIDE” (NISSAN CHEMICAL CORPORATION, priority 2019, published 2023)

Experiments:
Japanese bulrush [1] = experiment: Test Example 1: herbicidal activity, application before weed generation under submerged conditions (Table 16, symbol B); type: in vivo, Japanese bulrush (Schoenoplectus juncoides); settings: 320 g/ha applied herbicide
Outline: (§1)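 Submerged Wagner pots (alluvial soil, 4 cm water) sown with weed seeds and planted with 2.5-leaf rice seedlings; emulsifiable concentrate diluted in water applied to water surface on sowing day. Held in greenhouse at 25-30 °C; injury scored 0-5 by herbicidal rate after three weeks.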

oval-leafed pondweed [2] = experiment: Test Example 1: herbicidal activity, application before weed generation under submerged conditions (Table 16, symbol C); type: in vivo, oval-leafed pondweed (Monochoria vaginalis); settings: 320 g/ha applied herbicide
Outline: as §1

late watergrass [3] = experiment: Test Example 2: herbicidal activity, application during weed generation under submerged conditions (Table 17, symbol A); type: in vivo, late watergrass (Echinochloa oryzicola); settings: AAH 320 g/ha; application during weed generation, submerged conditions
Outline: (§2)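 In this pot test, flooded alluvial soil (water depth 4 cm) holds all three species sown as a mixture. Once seedlings have one to two leaves, the compound's emulsion, thinned with water to the intended dose, is poured on the water; grading follows after three weeks on the earlier criteria.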

Chinese sprangletop = experiment: Test Example 3: herbicidal effect by foliage application, Wagner pot (Table 18, symbol D); type: in vivo, chinese sprangletop (Leptochloa chinensis); settings: 320 g/ha
Outline: (§3)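 Plants were sown in alluvial soil held under 0.1–0.5 cm standing water and grown 14 days in a greenhouse at 25–30 °C. An emulsifiable formulation, water-diluted to the set dose, was then sprayed onto the foliage, and effects were scored three weeks later using previously defined criteria.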

barnyard grass = experiment: Test Example 3: herbicidal effect by foliage application, Wagner pot (Table 18, symbol H); type: in vivo, barnyard grass (Echinochloa crus-galli); settings: 320 g/ha
Outline: as §3

oval-leafed pondweed [4] = experiment: Test Example 2: herbicidal activity, application during weed generation under submerged conditions (Table 17, symbol C); type: in vivo, oval-leafed pondweed (Monochoria vaginalis); settings: AAH 320 g/ha; application during weed generation, submerged conditions
Outline: as §2

rice flat sedge = experiment: Test Example 3: herbicidal effect by foliage application, Wagner pot (Table 18, symbol E); type: in vivo, rice flat sedge (Cyperus iria); settings: 320 g/ha
Outline: as §3

late watergrass [5] = experiment: Test Example 1: herbicidal activity, application before weed generation under submerged conditions (Table 16, symbol A); type: in vivo, late watergrass (Echinochloa oryzicola); settings: 320 g/ha applied herbicide
Outline: as §1

Japanese bulrush [6] = experiment: Test Example 2: herbicidal activity, application during weed generation under submerged conditions (Table 17, symbol B); type: in vivo, Japanese bulrush (Schoenoplectus juncoides); settings: AAH 320 g/ha; application during weed generation, submerged conditions
Outline: as §2

Structure (SMILES) | Herbicidal effect on B: Japanese bulrush (grade 0-5) (Japanese bulrush [1]) | Herbicidal effect on C: oval-leafed pondweed (grade 0-5) (oval-leafed pondweed [2]) | herbicidal effect rating, A: late watergrass (late watergrass [3]) | herbicidal effect on D (Chinese sprangletop), rating 0-5 (Chinese sprangletop) | herbicidal effect on H (barnyard grass), rating 0-5 (barnyard grass) | herbicidal effect rating, C: oval-leafed pondweed (oval-leafed pondweed [4]) | herbicidal effect on E (rice flat sedge), rating 0-5 (rice flat sedge) | Herbicidal effect on A: late watergrass (grade 0-5) (late watergrass [5]) | herbicidal effect rating, B: Japanese bulrush (Japanese bulrush [6])
C=CCCOc1ccc(-c2sc3ccccc3c2-c2c(O)c(C)nn(C)c2=O)cc1 [1-207] | 5 (Herbicidal rate of 90% or more (almost completely withered)) | 5 (Herbicidal rate of 90% or more (almost completely withered)) | 5 (Herbicidal rate of 90% or more (almost completely withered)) | 5 (Herbicidal rate of 90% or more (almost completely withered)) | 5 (Herbicidal rate of 90% or more (almost completely withered)) | 5 (Herbicidal rate of 90% or more (almost completely withered)) | 4 (Herbicidal rate of 70% or more and less than 90%) | 5 (Herbicidal rate of 90% or more (almost completely withered)) | 4 (Herbicidal rate of 70% or more and less than 90%)
Cc1nn(C)c(=O)c(-c2c(-c3ccc(OCCOCCCl)cc3)sc3ccccc23)c1O [1-227] | 5 (Herbicidal rate of 90% or more (almost completely withered)) | 5 (Herbicidal rate of 90% or more (almost completely withered)) | 4 (Herbicidal rate of 70% or more and less than 90%) | 4 (Herbicidal rate of 70% or more and less than 90%) | 5 (Herbicidal rate of 90% or more (almost completely withered)) | 3 (Herbicidal rate of 40% or more and less than 70%) | 4 (Herbicidal rate of 70% or more and less than 90%) | 5 (Herbicidal rate of 90% or more (almost completely withered)) | 3 (Herbicidal rate of 40% or more and less than 70%)
